The values that follow come from patent US20110224210A1, “NOVEL BIS-AMIDES AS ANTI-MALARIAL AGENTS” (priority 2008, published 2011).

This assay relates to P. falciparum K1 (strain resistant to chloroquine and pyrimethamine), erythrocytic stages. The experiment in a line: Plasmodium falciparum in vitro assay, [3H] hypoxanthine incorporation. To be noted: Plasmodium falciparum, K1, P. falciparum strain K1; [3H] hypoxanthine incorporation; read-out: IC50 (nM) on K1. The assay is classed as cell-based. Put shortly:
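Chloroquine/pyrimethamine-resistant K1 erythrocytic cultures (2.5% haematocrit, 0.3% parasitaemia, hypoxanthine-free RPMI with Albumax) exposed to seven doubling dilutions at 37 °C under low O2.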

`COCCN(C)C(=O)[C@H](Cc1ccccc1)N(Cc1ccc(N2CCOCC2)nc1)C(=O)C=Cc1ccc(C)cc1` [Example 158, (S)-N-{1-[(2-Methoxy-ethyl)-methyl-carbamoyl]-2-phenyl-ethyl}-N-(6-morpholin-4-yl-pyridin-3-ylmethyl)-3-p-tolyl-acrylamide]: the IC50 turned out to be 24 nM.
Under `COCCN(C)C(=O)[C@H](Cc1ccccc1)N(Cc1ccc(N2CCOCC2)nc1)C(=O)C=Cc1ccc(OC)cc1` [Example 159, (S)-N-{1-[(2-Methoxy-ethyl)-methyl-carbamoyl]-2-phenyl-ethyl}-3-(4-methoxy-phenyl)-N-(6-morpholin-4-yl-pyridin-3-ylmethyl)-acrylamide] stands 49 nM; under `COCCN(C)C(=O)[C@H](Cc1ccccc1)N(Cc1ccccc1)C(=O)C=Cc1ccc(C)cc1` [Example 160, (S)-N-Benzyl-N-{1-[(2-methoxy-ethyl)-methyl-carbamoyl]-2-phenyl-ethyl}-3-p-tolyl-acrylamide], 93 nM; under `CCc1ccc(CN(C(=O)C=Cc2ccc(C)cc2)[C@@H](Cc2ccccc2)C(=O)N(C)CCOC)cc1` [Example 161, (S)-N-(4-Ethyl-benzyl)-N-{1-[(2-methoxy-ethyl)-methyl-carbamoyl]-2-phenyl-ethyl}-3-p-tolyl-acrylamide], 49 nM.
In the case of `COCCN(C)C(=O)[C@H](Cc1ccccc1)N(Cc1ccccn1)C(=O)C=Cc1ccc(C)cc1` [Example 162, (S)-N-{1-[(2-Methoxy-ethyl)-methyl-carbamoyl]-2-phenyl-ethyl}-N-pyridin-2-ylmethyl-3-p-tolyl-acrylamide] it was 45 nM; in that of `COCCN(C)C(=O)[C@H](Cn1cccc1)N(Cc1ccc(-c2ccccn2)cc1)C(=O)C=Cc1ccc(C(F)(F)F)cc1` [Example 163, (S)-N-{1-[(2-Methoxy-ethyl)-methyl-carbamoyl]-2-pyrrol-1-yl-ethyl}-N-(4-pyridin-2-yl-benzyl)-3-(4-trifluoromethyl-phenyl)-acrylamide], 37 nM.
As to `CN(C)CCN(C)C(=O)[C@H](Cc1ccccc1)N(Cc1ccc(-c2ccccn2)cc1)C(=O)C=Cc1ccc(C(F)(F)F)cc1` [Example 171, (S)-N-{1-[(2-Dimethylamino-ethyl)-methyl-carbamoyl]-2-phenyl-ethyl}-N-(4-pyridin-2-yl-benzyl)-3-(4-trifluoromethyl-phenyl)-acrylamide], the IC50 amounted to 80 nM.
In the case of `CN(C(=O)[C@H](Cc1ccccc1)N(Cc1ccc(-c2ccccn2)cc1)C(=O)C=Cc1ccc(C(F)(F)F)cc1)[C@H]1CCN(Cc2ccccc2)C1` [Example 172, N-{1-[((S)-1-Benzyl-pyrrolidin-3-yl)-methyl-carbamoyl]-(S)-2-phenyl-ethyl}-N-(4-pyridin-2-yl-benzyl)-3-(4-trifluoromethyl-phenyl)-acrylamide] it was 89 nM.
With `CN(C(=O)[C@H](Cc1ccccc1)N(Cc1ccc(-c2ccccn2)cc1)C(=O)C=Cc1ccc(C(F)(F)F)cc1)[C@@H]1CCN(Cc2ccccc2)C1` [Example 173, N-{1-[((R)-1-Benzyl-pyrrolidin-3-yl)-methyl-carbamoyl]-(S)-2-phenyl-ethyl}-N-(4-pyridin-2-yl-benzyl)-3-(4-trifluoromethyl-phenyl)-acrylamide], the IC50 stood at 52 nM.
In the case of `CN(C)CCN(Cc1ccccc1)C(=O)[C@H](Cc1ccccc1)N(Cc1ccc(-c2ccccn2)cc1)C(=O)C=Cc1ccc(C(F)(F)F)cc1` [Example 174] it was 430 nM; in that of `CN(CCO)C(=O)[C@H](Cc1ccccc1)N(Cc1ccc(N2CCOCC2)cc1)C(=O)C=Cc1ccc(C(F)(F)F)cc1` [Example 175, (S)-N-{1-[(2-Hydroxy-ethyl)-methyl-carbamoyl]-2-phenyl-ethyl}-N-(4-morpholin-4-yl-benzyl)-3-(4-trifluoromethyl-phenyl)-acrylamide], 88 nM; in that of `CC(=O)N1CCN(c2ccc(CN(C(=O)C=Cc3ccc(C(F)(F)F)cc3)[C@@H](Cc3ccccc3)C(=O)N(C)CCO)cc2)CC1` [Example 176, (S)-N-[4-(4-Acetyl-piperazin-1-yl)-benzyl]-N-{1-[(2-hydroxy-ethyl)-methyl-carbamoyl]-2-phenyl-ethyl}-3-(4-trifluoromethyl-phenyl)-acrylamide], 51 nM.
Under `COc1ccc(CN(C)C(=O)[C@H](Cc2ccccc2)N(Cc2ccc(N3CCOCC3)cc2)C(=O)C=Cc2ccc(C(F)(F)F)nc2)cc1` [Example 177, (S)-N-{1-[(4-Methoxy-benzyl)-methyl-carbamoyl]-2-phenyl-ethyl}-N-(4-morpholin-4-yl-benzyl)-3-(6-trifluoromethyl-pyridin-3-yl)-acrylamide] stands 84 nM; under `COCCN(C)C(=O)[C@H](Cc1ccccc1)N(Cc1ccc(N2CCN(C(C)=O)CC2)cc1)C(=O)C=Cc1ccc(C(F)(F)F)cc1` [Example 178, (S)-N-[4-(4-Acetyl-piperazin-1-yl)-benzyl]-N-{1-[(2-methoxy-ethyl)-methyl-carbamoyl]-2-phenyl-ethyl}-3-(4-trifluoromethyl-phenyl)-acrylamide], 10 nM.
Turning to `COCCN(C)C(=O)[C@H](Cc1ccccc1)N(Cc1ccc(N2CCOCC2)cc1)C(=O)C=Cc1ccc(C(F)(F)F)cc1` [Example 179, (S)-N-{1-[(2-Methoxy-ethyl)-methyl-carbamoyl]-2-phenyl-ethyl}-N-(4-morpholin-4-yl-benzyl)-3-(4-trifluoromethyl-phenyl)-acrylamide, formic acid], the IC50 came out at 9 nM.
In the case of `CC(=O)N1CCN(c2ccc(CN(C(=O)C=Cc3ccc(C(F)(F)F)cc3)[C@@H](Cc3ccccc3)C(=O)N(C)CCOc3ncccn3)cc2)CC1` [Example 180, (S)-N-[4-(4-Acetyl-piperazin-1-yl)-benzyl]-N-(1-{methyl-[2-(pyrimidin-2-yloxy)-ethyl]-carbamoyl}-2-phenyl-ethyl)-3-(4-trifluoromethyl-phenyl)-acrylamide] it was 38 nM; in that of `CC(=O)N1CCN(c2ccc(CN(C(=O)C=Cc3ccc(C(F)(F)F)cc3)[C@@H](Cc3ccccc3)C(=O)N(C)CCOCc3ccccc3)cc2)CC1` [Example 181, (S)-N-[4-(4-Acetyl-piperazin-1-yl)-benzyl]-N-{1-[(2-benzyloxy-ethyl)-methyl-carbamoyl]-2-phenyl-ethyl}-3-(4-trifluoromethyl-phenyl)-acrylamide], 10 nM; in that of `CN(CCOCc1ccccc1)C(=O)[C@H](Cc1ccccc1)N(Cc1ccc(N2CCOCC2)cc1)C(=O)C=Cc1ccc(C(F)(F)F)cc1` [Example 182, (S)-N-{1-[(2-Benzyloxy-ethyl)-methyl-carbamoyl]-2-phenyl-ethyl}-N-(4-morpholin-4-yl-benzyl)-3-(4-trifluoromethyl-phenyl)-acrylamide], 18 nM.
Under `CC(=O)N1CCN(c2ccc(CN(C(=O)C=Cc3ccc(C(F)(F)F)cc3)[C@@H](Cc3ccccc3)C(=O)N(C)CCOCc3ccc(C)cc3C)cc2)CC1` [Example 183, (S)-N-[4-(4-Acetyl-piperazin-1-yl)-benzyl]-N-(1-{[2-(2,4-dimethyl-benzyloxy)-ethyl]-methyl-carbamoyl}-2-phenyl-ethyl)-3-(4-trifluoromethyl-phenyl)-acrylamide, formic acid] stands 60 nM.

The term IC50 denotes the concentration that inhibits the measured activity by half.
